Molecules are shown by their SMILES.

Assay [1] deals with Dual specificity calcium/calmodulin-dependent 3',5'-cyclic nucleotide phosphodiesterase 1B (Homo sapiens, UniProt Q01064). Nature of the assay: Phosphodiesterase (PDE) Inhibition Assay. The conditions noted are these: pH 7.5; 30 °C.
For assay [2], the target named is High affinity cAMP-specific and IBMX-insensitive 3',5'-cyclic phosphodiesterase 8A (Homo sapiens, UniProt O60658). Nature of the assay: Phosphodiesterase (PDE) Inhibition Assay.
Assay [3] addresses T1, Isoform 4 of Dual 3',5'-cyclic-AMP and -GMP phosphodiesterase 11A (PDE11A1) 35-489] (Homo sapiens, UniProt Q9HCR9).
T1 sequence (Q9HCR9 whole entry): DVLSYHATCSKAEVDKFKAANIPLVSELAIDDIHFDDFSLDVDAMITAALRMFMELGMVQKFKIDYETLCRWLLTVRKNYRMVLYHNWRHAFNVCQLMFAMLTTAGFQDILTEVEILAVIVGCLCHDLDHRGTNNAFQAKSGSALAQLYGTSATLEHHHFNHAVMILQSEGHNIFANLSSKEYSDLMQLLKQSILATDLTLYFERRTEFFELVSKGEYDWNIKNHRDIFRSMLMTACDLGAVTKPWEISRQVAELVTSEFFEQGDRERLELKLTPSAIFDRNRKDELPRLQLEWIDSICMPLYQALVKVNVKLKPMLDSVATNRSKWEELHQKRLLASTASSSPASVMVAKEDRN
Nature of the assay: Phosphodiesterase (PDE) Inhibition Assay.

Assay [4] addresses T2, cGMP-dependent 3',5'-cyclic phosphodiesterase [574-941] (Homo sapiens, UniProt O00408).
T2 construct: 574-941
Nature of the assay: Phosphodiesterase (PDE) Inhibition Assay.

Assay [5] concerns the target T3, cGMP-inhibited 3',5'-cyclic phosphodiesterase 3B [650-1084] (Homo sapiens, UniProt Q13370).
T3 construct: 650-1084
Put plainly: Phosphodiesterase (PDE) Inhibition Assay.

Assay [6] concerns the target T4, cGMP-specific 3',5'-cyclic phosphodiesterase [531-875] (Homo sapiens, UniProt O76074).
T4 construct: 531-875
Put plainly: Phosphodiesterase (PDE) Inhibition Assay.

Assay [7] has as its target T5, High affinity cGMP-specific 3',5'-cyclic phosphodiesterase 9A [226-593] (Homo sapiens, UniProt O76083).
T5 construct: 226-593

The target in assay [8] is T6, cAMP and cAMP-inhibited cGMP 3',5'-cyclic phosphodiesterase 10A [432-779] (Homo sapiens, UniProt Q9Y233).
T6 construct: 432-779
Put plainly: Phosphodiesterase (PDE) Inhibition Assay.

Assay [9] concerns the target T7, cAMP-specific 3',5'-cyclic phosphodiesterase 7B [91-450] (Homo sapiens, UniProt Q9NP56).
T7 construct: 91-450
Nature of the assay: Phosphodiesterase (PDE) Inhibition Assay.

The target in assay [10] is cAMP-specific 3',5'-cyclic phosphodiesterase 4D [372-376,381-715,S375G,I381V,S383G,G384S,V385H,K386M) (Homo sapiens, UniProt Q08499, S375G/I381V/S383G/G384S/V385H/K386M). Put plainly: Phosphodiesterase (PDE) Inhibition Assay.

T6 sequence (Q9Y233 708-1055): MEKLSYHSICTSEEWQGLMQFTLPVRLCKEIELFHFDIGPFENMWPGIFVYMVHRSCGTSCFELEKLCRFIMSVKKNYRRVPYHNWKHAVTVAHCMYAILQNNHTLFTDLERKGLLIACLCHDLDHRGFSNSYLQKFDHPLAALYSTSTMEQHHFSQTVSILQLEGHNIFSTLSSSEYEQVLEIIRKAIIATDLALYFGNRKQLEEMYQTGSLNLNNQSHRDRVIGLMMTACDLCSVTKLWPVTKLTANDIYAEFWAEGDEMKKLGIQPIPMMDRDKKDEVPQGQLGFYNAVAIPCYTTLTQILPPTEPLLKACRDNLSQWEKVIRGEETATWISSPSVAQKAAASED
T2 sequence (O00408 574-941): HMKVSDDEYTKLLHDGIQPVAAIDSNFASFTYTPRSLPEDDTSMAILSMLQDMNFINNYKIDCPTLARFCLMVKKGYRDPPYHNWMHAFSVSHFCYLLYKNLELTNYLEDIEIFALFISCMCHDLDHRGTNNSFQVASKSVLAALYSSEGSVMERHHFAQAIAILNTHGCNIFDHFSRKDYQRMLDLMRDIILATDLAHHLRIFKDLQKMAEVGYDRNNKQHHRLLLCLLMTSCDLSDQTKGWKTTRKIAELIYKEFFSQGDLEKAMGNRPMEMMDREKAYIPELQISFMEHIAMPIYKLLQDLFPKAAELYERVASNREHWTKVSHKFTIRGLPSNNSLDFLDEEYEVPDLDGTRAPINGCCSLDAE
T7 sequence (Q9NP56 91-450): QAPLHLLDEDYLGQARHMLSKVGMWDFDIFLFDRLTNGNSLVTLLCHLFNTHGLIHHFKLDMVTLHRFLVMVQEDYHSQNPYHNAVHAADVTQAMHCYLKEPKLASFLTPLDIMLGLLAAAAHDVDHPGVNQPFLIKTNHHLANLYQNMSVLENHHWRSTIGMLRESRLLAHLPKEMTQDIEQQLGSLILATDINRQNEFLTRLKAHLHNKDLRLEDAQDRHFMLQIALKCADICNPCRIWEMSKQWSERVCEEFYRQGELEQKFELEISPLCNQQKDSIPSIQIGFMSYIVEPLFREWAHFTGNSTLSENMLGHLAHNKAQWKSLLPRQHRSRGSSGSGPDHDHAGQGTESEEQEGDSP
T5 sequence (O76083 226-593): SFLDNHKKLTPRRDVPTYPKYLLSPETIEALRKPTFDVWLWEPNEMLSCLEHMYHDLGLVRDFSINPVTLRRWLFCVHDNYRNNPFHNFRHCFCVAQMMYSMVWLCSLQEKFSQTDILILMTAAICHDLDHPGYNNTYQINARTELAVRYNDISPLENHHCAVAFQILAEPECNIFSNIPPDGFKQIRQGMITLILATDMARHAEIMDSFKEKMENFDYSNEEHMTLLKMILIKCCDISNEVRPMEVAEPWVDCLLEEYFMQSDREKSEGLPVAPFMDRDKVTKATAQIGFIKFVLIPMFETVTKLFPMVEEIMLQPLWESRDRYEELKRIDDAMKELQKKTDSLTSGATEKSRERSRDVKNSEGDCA
T3 sequence (Q13370 650-1084): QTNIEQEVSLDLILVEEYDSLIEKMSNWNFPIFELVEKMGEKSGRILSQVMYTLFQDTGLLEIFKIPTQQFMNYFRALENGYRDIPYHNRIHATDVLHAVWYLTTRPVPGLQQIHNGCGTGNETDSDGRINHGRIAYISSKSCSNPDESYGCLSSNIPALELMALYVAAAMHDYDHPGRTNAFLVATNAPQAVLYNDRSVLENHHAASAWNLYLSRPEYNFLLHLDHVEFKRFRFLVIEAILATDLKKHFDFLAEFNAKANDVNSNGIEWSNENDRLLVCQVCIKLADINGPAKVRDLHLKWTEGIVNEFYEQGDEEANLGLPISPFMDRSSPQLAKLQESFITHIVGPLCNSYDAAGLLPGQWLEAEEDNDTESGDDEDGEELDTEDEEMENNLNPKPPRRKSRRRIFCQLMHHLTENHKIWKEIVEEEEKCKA
Chain of Dual specificity calcium/calmodulin-dependent 3',5'-cyclic nucleotide phosphodiesterase 1B (Q01064 whole entry): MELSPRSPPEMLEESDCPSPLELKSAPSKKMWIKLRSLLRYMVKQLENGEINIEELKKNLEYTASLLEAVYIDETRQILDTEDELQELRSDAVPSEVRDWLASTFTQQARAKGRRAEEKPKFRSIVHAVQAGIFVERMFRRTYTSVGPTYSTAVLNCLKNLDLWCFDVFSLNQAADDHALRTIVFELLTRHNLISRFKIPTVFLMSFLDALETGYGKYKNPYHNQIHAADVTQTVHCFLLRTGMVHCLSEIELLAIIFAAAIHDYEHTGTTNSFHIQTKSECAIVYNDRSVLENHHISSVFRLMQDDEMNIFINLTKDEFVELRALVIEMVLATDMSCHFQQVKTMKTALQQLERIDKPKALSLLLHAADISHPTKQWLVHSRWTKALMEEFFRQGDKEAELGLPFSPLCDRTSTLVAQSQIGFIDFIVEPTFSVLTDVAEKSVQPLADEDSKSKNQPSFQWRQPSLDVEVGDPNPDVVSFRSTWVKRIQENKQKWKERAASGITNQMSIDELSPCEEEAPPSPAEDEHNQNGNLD
Chain of High affinity cAMP-specific and IBMX-insensitive 3',5'-cyclic phosphodiesterase 8A (O60658 whole entry, canonical isoform): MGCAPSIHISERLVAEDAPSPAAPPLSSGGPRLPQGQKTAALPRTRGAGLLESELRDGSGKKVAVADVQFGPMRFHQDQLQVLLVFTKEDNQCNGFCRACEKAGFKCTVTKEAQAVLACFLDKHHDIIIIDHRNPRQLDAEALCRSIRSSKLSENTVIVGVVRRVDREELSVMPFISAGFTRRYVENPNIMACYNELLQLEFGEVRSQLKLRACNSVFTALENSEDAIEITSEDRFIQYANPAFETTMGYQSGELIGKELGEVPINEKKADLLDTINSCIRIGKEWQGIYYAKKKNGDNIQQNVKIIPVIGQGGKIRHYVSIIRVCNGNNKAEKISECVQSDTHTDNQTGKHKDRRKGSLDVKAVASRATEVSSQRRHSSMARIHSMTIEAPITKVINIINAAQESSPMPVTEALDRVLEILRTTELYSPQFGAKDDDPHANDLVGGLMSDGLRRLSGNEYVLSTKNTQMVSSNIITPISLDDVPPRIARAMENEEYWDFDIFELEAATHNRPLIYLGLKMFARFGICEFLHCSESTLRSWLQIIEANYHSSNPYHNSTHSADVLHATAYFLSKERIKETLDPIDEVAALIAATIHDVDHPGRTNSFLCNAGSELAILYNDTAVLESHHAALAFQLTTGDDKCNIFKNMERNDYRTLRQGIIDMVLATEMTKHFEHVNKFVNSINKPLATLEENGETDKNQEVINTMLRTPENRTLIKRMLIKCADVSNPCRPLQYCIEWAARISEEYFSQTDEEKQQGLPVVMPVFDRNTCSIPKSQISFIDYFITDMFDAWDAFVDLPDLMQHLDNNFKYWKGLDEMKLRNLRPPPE

On to `COc1ccc(C(=O)Nc2c(Cl)cncc2Cl)cc1OC1CCCC1` [3-(cyclopentyloxy)-N-(3,5-dichloropyridin-4-yl)-4-methoxybenzamide], for which the IC50 (usually the concentration needed to halve the response being measured) was 68 µM in assay [1]; greater than 200 µM in assay [2]; 1.6 µM in assay [3]; 54 µM in assay [4]; 11 µM in assay [5]; 3.5 µM in [6]. In assay [7], the half-inhibitory concentration (IC50) was greater than 200 µM.

Regarding `CCCOc1cc(C2(C)CNC(=O)O2)ccc1OC` (racemic) [5-(4-methoxy-3-propoxyphenyl)-5-methyl-1,3-oxazolidin-2-one], the IC50 in [1] is greater than 200 µM; in assay [2], greater than 200 µM; in [3] it was greater than 200 µM; in [8], 63 µM; in [4] (pH 7.5, 30 °C) it was greater than 200 µM; in assay [5] it was greater than 200 µM. Moreover, the IC50 in assay [6] and in assay [7] was greater than 200 µM each time.

With `CCCc1nc(C)c2c(=O)[nH]c(-c3cc(S(=O)(=O)N4CCN(CC)CC4)ccc3OCC)nn12`, the IC50 in assay [2] turned out to be 57 µM; in [3] it was 0.24 µM; in [8], 0.88 µM; in assay [4], 3.1 µM.

As to `COc1ccc(C2(C#N)CCC(C(=O)O)CC2)cc1OC1CCCC1` (stereo not drawn) [Ariflo], the IC50 amounted to 87 µM in [1]; 7 µM in assay [2]; 21 µM in assay [3]; 73 µM in assay [8]; 160 µM in assay [4] (pH 7.5, 30 °C); 87 µM in [5]. The figures for the IC50 in [6] and in [7] were 53 µM and greater than 200 µM, respectively.

For `COc1ccc([C@@H]2CNC(=O)C2)cc1OC1CCCC1` (racemic) [Adeo], the IC50 is greater than 200 µM in [1]; greater than 200 µM in assay [2]; greater than 200 µM in assay [3]; greater than 200 µM in assay [9]; greater than 200 µM in assay [4] (pH 7.5, 30 °C); greater than 200 µM in [5]. The same compound registered an IC50 in assay [7] greater than 200 µM.

As to `COc1cc(-c2ccc(=O)[nH]n2)ccc1OC(F)F` [6-[4-(difluoromethoxy)-3-methoxyphenyl]-2,3-dihydropyridazin-3-one], the IC50 in [1] was greater than 200 µM; in assay [2] it was 160 µM; in assay [3] it was 140 µM; in assay [8], 14 µM; in assay [4] (pH 7.5, 30 °C) it was greater than 200 µM; in assay [5], 1.5 µM. Also, the values for the IC50 in [6] and in [7] were 81 µM and greater than 200 µM, respectively.

Take `COc1ccc(C(C)=NOC(N)=O)cc1OC1CCCC1` [(E)-{1-[3-(cyclopentyloxy)-4-methoxyphenyl]ethylidene}amino carbamate]: the IC50 in assay [1] is 190 µM; in [2] it was 120 µM; in [3], 57 µM; in [8] it was 27 µM; in assay [10], 1 µM; in assay [9] it was 0.99 µM. Also, the concentration for half-maximal inhibition (IC50) was 89 µM in assay [4] (pH 7.5, 30 °C); 9.4 µM in assay [5]; 53 µM in assay [6]; greater than 200 µM in assay [7].

For the compound `O=C(Nc1c(Cl)cncc1Cl)c1ccc(OC(F)F)c(OCC2CC2)c1` [DAXAS], the IC50 in [1] is greater than 200 µM; in [2] it was greater than 200 µM; in assay [3], 25 µM; in assay [8] it was greater than 200 µM; in assay [9], greater than 200 µM; in assay [4] it was greater than 200 µM. Moreover, the values for the IC50 in assay [5], in assay [6] and in [7] were greater than 200 µM, 17 µM and greater than 200 µM, respectively.

In the case of `CN1CC(=O)N2[C@H](c3ccc4c(c3)OCO4)c3[nH]c4ccccc4c3C[C@@H]2C1=O`, the IC50 in assay [1] is 50 µM; in [2] it was greater than 200 µM; in assay [8], 19 µM; in assay [9] it was 74 µM; in assay [4], 130 µM; in assay [5], 280 µM. The same compound came in with an IC50 in assay [7] of 150 µM.

Values taken from BindingDB's records for doi:10.1016/j.str.2004.10.004 (Plexxikon, 2004).
